Data on two compounds can be found in PubChem BioAssay (NCI).

Some test systems named below: CAKI-1 renal; DMS 114 small cell lung; EKVX NSCLC; HOP-92 NSCLC; HS 578T breast; MDA-N; OVCAR-3 ovarian; OVCAR-4 ovarian; SF-268 CNS; SN12C renal; SNB-78 CNS.
Common to all, as to assay: DTP human tumour cell line panel, 48 h

“And” between values parts separate entries of the source, which are not always exact repeats. Equal entries are not always repeated.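 1) Cells in 96-well plates. 2) Compound, 48 h, 5 concentrations. 3) Linear interpolation between surrounding doses. 4) Unreached endpoint = highest concentration. GI50 is the concentration that inhibits growth by half. TGI denotes the concentration required for complete inhibition of growth.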 Some results are limits rather than exact numbers.

`CN(C)CC1CCC(CN(C)C)C1=O` (stereo not given): the TGI amounted to 1.95 µM in the experiment with CAKI-1 renal; 11.8 µM with DMS 114 small cell lung; 11 µM with EKVX NSCLC; 4.07 µM in the experiment with HOP-92 NSCLC; 10.2 µM in the experiment with HS 578T breast; 3.85 µM in the experiment with MDA-N. In addition, the TGI stood at 7.24 µM with OVCAR-3 ovarian; 15.8 µM in the experiment on OVCAR-4 ovarian; 42.4 µM in the experiment with SF-268 CNS; 13.4 µM in the experiment on SN12C renal; 17.2 µM in the experiment on SNB-78 CNS. Moreover, the GI50 in the experiment with HOP-92 NSCLC is 1.93 µM.
Regarding `C=C(CN(C)C)C(=O)c1ccccc1[N+](=O)[O-]`, the GI50 in the experiment with CAKI-1 renal is 1.55 µM; with EKVX NSCLC, 23 µM; with HOP-92 NSCLC, 2.11 µM; in the experiment with MDA-N, 10.6 µM; in the experiment with OVCAR-3 ovarian, 14.7 µM; in the experiment on SF-268 CNS it was 20.7 µM. Also, in the experiment with SN12C renal, the GI50 is 3.74 µM. For the same compound, the TGI in the experiment with CAKI-1 renal was 28.2 µM and 2.88 µM; with DMS 114 small cell lung, 39.1 µM; in the experiment on EKVX NSCLC, > 59.3 µM and 49 µM; in the experiment on HOP-92 NSCLC, 18.5 µM and 5.11 µM; in the experiment on HS 578T breast, 77.1 µM; with MDA-N it was 27.9 µM and 25.3 µM. In addition, the TGI was 37 µM and 40.7 µM with OVCAR-3 ovarian; 41.1 µM in the experiment with OVCAR-4 ovarian; 51.4 µM and 58.3 µM in the experiment on SF-268 CNS; 32.6 µM and 24.7 µM in the experiment on SN12C renal; 71.4 µM with SNB-78 CNS.
